Laboratory results: the CheMixHub viscosity set
± gives the uncertainty stated by the source.

Test: xn = mol fraction of the nth substance listed

COC(=O)c1ccccc1 + CC#N
viscosity [mPa·s], 101.33 kPa
Settings | x1 = 0.134 | x1 = 0.255 | x1 = 0.373 | x1 = 0.48 | x1 = 0.57 | x1 = 0.666 | x1 = 0.752 | x1 = 0.837 | x1 = 0.922
293.15 K | 0.444 ± 0.005 | 0.476 ± 0.005 | 0.515 ± 0.005 | 0.624 ± 0.006 | 0.676 ± 0.006 | 0.805 ± 0.007 | 0.958 ± 0.008 | 1.128 ± 0.009 | 1.508 ± 0.012
303.15 K | 0.4 ± 0.005 | 0.43 ± 0.005 | 0.46 ± 0.005 | 0.551 ± 0.006 | 0.595 ± 0.006 | 0.695 ± 0.006 | 0.814 ± 0.007 | 0.95 ± 0.008 | 1.226 ± 0.01
313.15 K | 0.365 ± 0.005 | 0.387 ± 0.005 | 0.41 ± 0.005 | 0.5 ± 0.005 | 0.521 ± 0.006 | 0.608 ± 0.006 | 0.701 ± 0.007 | 0.811 ± 0.007 | 1.016 ± 0.009
323.15 K | 0.329 ± 0.005 | 0.351 ± 0.005 | 0.367 ± 0.005 | 0.446 ± 0.005 | 0.467 ± 0.005 | 0.531 ± 0.006 | 0.602 ± 0.006 | 0.691 ± 0.007 | 0.854 ± 0.008

CCCCOCCO + c1ccccc1
viscosity [mPa·s], 101 kPa
Settings | 298.15 K | 308.15 K
x1 = 0.0553 | 0.648 ± 0.012 | 0.562 ± 0.01
x1 = 0.1496 | 0.736 ± 0.013 | 0.631 ± 0.011
x1 = 0.2488 | 0.845 ± 0.015 | 0.717 ± 0.013
x1 = 0.3504 | 0.978 ± 0.016 | 0.821 ± 0.014
x1 = 0.4555 | 1.144 ± 0.019 | 0.949 ± 0.016
x1 = 0.4995 | 1.223 ± 0.02 | 1.011 ± 0.017
x1 = 0.5504 | 1.323 ± 0.022 | 1.088 ± 0.018
x1 = 0.6482 | 1.543 ± 0.025 | 1.258 ± 0.021
x1 = 0.7535 | 1.83 ± 0.029 | 1.479 ± 0.024
x1 = 0.8483 | 2.143 ± 0.033 | 1.718 ± 0.028
x1 = 0.9556 | 2.575 ± 0.04 | 2.048 ± 0.033

CCCCCCCCN(CCCCCCCC)CCCCCCCC + C1CCCCC1
303.15 K, 101 kPa
Settings | viscosity [mPa·s]
x2 = 0.1179 | 6.488 ± 0.13
x2 = 0.1582 | 6.33 ± 0.13
x2 = 0.3086 | 5.344 ± 0.11
x2 = 0.4099 | 4.83 ± 0.097
x2 = 0.5029 | 4.33 ± 0.087
x2 = 0.6074 | 3.468 ± 0.07
x2 = 0.7022 | 2.757 ± 0.055
x2 = 0.8023 | 2.054 ± 0.041
x2 = 0.902 | 1.416 ± 0.028

COC(=O)c1ccccc1 + C1CCOC1
viscosity [mPa·s], 100 kPa
Settings | x1 = 0.0689 | x1 = 0.1417 | x1 = 0.2202 | x1 = 0.303 | x1 = 0.3932 | x1 = 0.493 | x1 = 0.6018 | x1 = 0.7225 | x1 = 0.8535
303.15 K | 0.496 ± 0.02 | 0.562 ± 0.023 | 0.638 ± 0.026 | 0.727 ± 0.029 | 0.829 ± 0.034 | 0.951 ± 0.039 | 1.096 ± 0.044 | 1.262 ± 0.051 | 1.446 ± 0.059
308.15 K | 0.484 ± 0.02 | 0.546 ± 0.022 | 0.616 ± 0.025 | 0.699 ± 0.028 | 0.79 ± 0.032 | 0.904 ± 0.037 | 1.032 ± 0.042 | 1.181 ± 0.048 | 1.343 ± 0.054
313.15 K | 0.443 ± 0.018 | 0.505 ± 0.021 | 0.567 ± 0.023 | 0.641 ± 0.026 | 0.729 ± 0.03 | 0.83 ± 0.034 | 0.943 ± 0.038 | 1.078 ± 0.044 | 1.22 ± 0.05

CCOC(=O)CCl + CCCCCC
viscosity [mPa·s], 101.33 kPa
Settings | x1 = 0.0977 | x1 = 0.2029 | x1 = 0.3028 | x1 = 0.4001 | x1 = 0.4982 | x1 = 0.6039 | x1 = 0.7027 | x1 = 0.8032 | x1 = 0.9022
298.15 K | 0.342 ± 0.005 | 0.375 ± 0.006 | 0.416 ± 0.006 | 0.465 ± 0.007 | 0.524 ± 0.008 | 0.602 ± 0.01 | 0.683 ± 0.012 | 0.787 ± 0.014 | 0.923 ± 0.017
303.15 K | 0.326 ± 0.004 | 0.357 ± 0.005 | 0.396 ± 0.005 | 0.441 ± 0.006 | 0.495 ± 0.007 | 0.566 ± 0.008 | 0.641 ± 0.009 | 0.739 ± 0.01 | 0.861 ± 0.013
308.15 K | 0.309 ± 0.004 | 0.339 ± 0.005 | 0.377 ± 0.005 | 0.417 ± 0.006 | 0.466 ± 0.007 | 0.53 ± 0.008 | 0.6 ± 0.009 | 0.69 ± 0.011 | 0.8 ± 0.013

COC(=O)c1ccccc1 + CCCCCCCCCCCC
101 kPa
Settings | viscosity [mPa·s]
298.15 K, x2 = 0.082 | 1.662 ± 0.052
298.15 K, x2 = 0.1173 | 1.604 ± 0.05
298.15 K, x2 = 0.144 | 1.569 ± 0.049
298.15 K, x2 = 0.1894 | 1.521 ± 0.048
298.15 K, x2 = 0.2155 | 1.489 ± 0.047
298.15 K, x2 = 0.2495 | 1.456 ± 0.046
298.15 K, x2 = 0.2908 | 1.424 ± 0.045
298.15 K, x2 = 0.3295 | 1.395 ± 0.044
298.15 K, x2 = 0.3708 | 1.367 ± 0.043
298.15 K, x2 = 0.4625 | 1.325 ± 0.042
298.15 K, x2 = 0.5803 | 1.295 ± 0.041
298.15 K, x2 = 0.6336 | 1.286 ± 0.041
298.15 K, x2 = 0.6963 | 1.278 ± 0.041
298.15 K, x2 = 0.7551 | 1.279 ± 0.041
298.15 K, x2 = 0.837 | 1.291 ± 0.042
298.15 K, x2 = 0.9197 | 1.314 ± 0.043
308.15 K, x2 = 0.0354 | 1.452 ± 0.045
308.15 K, x2 = 0.0681 | 1.412 ± 0.044
308.15 K, x2 = 0.0984 | 1.376 ± 0.043
308.15 K, x2 = 0.126 | 1.347 ± 0.042
308.15 K, x2 = 0.1623 | 1.311 ± 0.041
308.15 K, x2 = 0.1958 | 1.282 ± 0.04
308.15 K, x2 = 0.2384 | 1.248 ± 0.039
308.15 K, x2 = 0.2693 | 1.226 ± 0.038
308.15 K, x2 = 0.3062 | 1.203 ± 0.038
308.15 K, x2 = 0.3476 | 1.182 ± 0.037
308.15 K, x2 = 0.3895 | 1.164 ± 0.037
308.15 K, x2 = 0.4361 | 1.146 ± 0.036
308.15 K, x2 = 0.485 | 1.131 ± 0.036
308.15 K, x2 = 0.5382 | 1.12 ± 0.036
308.15 K, x2 = 0.5886 | 1.112 ± 0.035
308.15 K, x2 = 0.65 | 1.108 ± 0.035
308.15 K, x2 = 0.7204 | 1.107 ± 0.036
308.15 K, x2 = 0.7849 | 1.11 ± 0.036
308.15 K, x2 = 0.8845 | 1.124 ± 0.037
318.15 K, x2 = 0.0445 | 1.219 ± 0.038
318.15 K, x2 = 0.0506 | 1.213 ± 0.038
318.15 K, x2 = 0.0779 | 1.183 ± 0.037
318.15 K, x2 = 0.1097 | 1.152 ± 0.036
318.15 K, x2 = 0.1388 | 1.126 ± 0.035
318.15 K, x2 = 0.1737 | 1.097 ± 0.034
318.15 K, x2 = 0.2067 | 1.072 ± 0.034
318.15 K, x2 = 0.2449 | 1.048 ± 0.033
318.15 K, x2 = 0.2814 | 1.025 ± 0.032
318.15 K, x2 = 0.3256 | 1.001 ± 0.032
318.15 K, x2 = 0.3648 | 0.983 ± 0.031
318.15 K, x2 = 0.4153 | 0.964 ± 0.03
318.15 K, x2 = 0.4635 | 0.95 ± 0.03
318.15 K, x2 = 0.5194 | 0.938 ± 0.03
318.15 K, x2 = 0.5726 | 0.931 ± 0.03
318.15 K, x2 = 0.6372 | 0.926 ± 0.03
318.15 K, x2 = 0.7 | 0.924 ± 0.03
318.15 K, x2 = 0.7739 | 0.929 ± 0.03
318.15 K, x2 = 0.8468 | 0.938 ± 0.03
